{"source": "patent EP4527828A1", "about": "“BIPHENYL COMPOUND, PHARMACEUTICAL COMPOSITION, METHOD FOR PREPARING SAME, AND USE THEREOF” (Longivitron (Suzhou) Biotechnology Co., Ltd, priority 2022, dated 2023)", "key": {"LAG3/MHCII": {"target": "T1, LAG3/MHCII (Homo sapiens, UniProt P18627)", "T1 sequence (P18627 23-450 limits assumed)": "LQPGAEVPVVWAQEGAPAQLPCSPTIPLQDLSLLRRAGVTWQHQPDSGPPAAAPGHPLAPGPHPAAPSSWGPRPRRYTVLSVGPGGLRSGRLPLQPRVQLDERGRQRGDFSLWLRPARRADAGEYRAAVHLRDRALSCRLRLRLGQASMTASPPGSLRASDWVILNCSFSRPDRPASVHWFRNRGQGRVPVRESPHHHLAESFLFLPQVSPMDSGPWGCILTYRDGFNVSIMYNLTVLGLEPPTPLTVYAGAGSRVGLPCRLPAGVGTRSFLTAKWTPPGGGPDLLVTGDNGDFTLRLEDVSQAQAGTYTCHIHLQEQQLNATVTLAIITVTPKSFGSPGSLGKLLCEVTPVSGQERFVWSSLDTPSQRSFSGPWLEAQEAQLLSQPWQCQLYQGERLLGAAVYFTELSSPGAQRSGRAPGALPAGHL", "experiment": "HTRF binding inhibition of LAG3 and its ligand MHCII", "settings": "for pIC50: binding inhibition LAG3/MHCII; for inhibition at 10 µM: compound at 10 µM, read-out: Inhibition rate", "experimental": "HTRF (Homogeneous time-resolved fluorescence) is based on two techniques, fluorescence resonance energy transfer (FRET) and time-resolved fluorescence (TRF). The detection was carried out using a 384-well plate. 2 µL of a compound to be tested with an appropriate concentration was collected, 4 µL of Tag1-LAG3 protein (with a final concentration of 10 nmol·L^-1) was added, 4 µL of Tag2-MHCII (with a final concentration of 20 nmol·L^-1) was added, and the plate was incubated at room temperature for 15 min. 10 µL of Anti-Tag1-Tb working solution (prepared by adding 25 µL of Anti-Tag1-Tab mother solution to 2475 µL of dilution buffer) was added, 10 µL of Anti-Tag2-XL665 working solution (prepared by adding 25 µL of Tag2-XL665 mother solution to 2475 µL of dilution buffer) was added, and the plate was sealed with a film and incubated at room temperature for 1 h. The detection was carried out using a Perkin Elma Envision instrument."}, "Human LAG3 protein": {"target": "T2, Human LAG3 protein (Homo sapiens, UniProt P18627)", "T2 sequence (P18627 23-525)": "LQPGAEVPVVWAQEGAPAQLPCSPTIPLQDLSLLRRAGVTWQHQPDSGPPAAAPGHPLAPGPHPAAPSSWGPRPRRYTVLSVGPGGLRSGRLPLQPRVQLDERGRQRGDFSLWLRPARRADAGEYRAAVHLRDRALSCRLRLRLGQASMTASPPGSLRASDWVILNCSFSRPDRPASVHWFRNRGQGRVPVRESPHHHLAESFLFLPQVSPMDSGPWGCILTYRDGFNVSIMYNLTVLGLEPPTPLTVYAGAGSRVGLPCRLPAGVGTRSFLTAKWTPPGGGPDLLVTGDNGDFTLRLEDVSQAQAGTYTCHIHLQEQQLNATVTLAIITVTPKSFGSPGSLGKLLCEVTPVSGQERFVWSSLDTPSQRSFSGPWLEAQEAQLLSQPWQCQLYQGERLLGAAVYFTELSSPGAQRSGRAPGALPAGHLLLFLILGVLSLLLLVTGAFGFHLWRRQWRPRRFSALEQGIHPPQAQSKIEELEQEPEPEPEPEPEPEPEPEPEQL", "experiment": "SPR interaction assay, CM5 chip amino coupling, human LAG3", "format": "binding", "text": "(§1) A surface plasmon is an electromagnetic wave on a metal surface and is generated by the interaction of photons and electrons which are freely vibrated. Surface plasmon resonance (SPR) is an optical phenomenon that occurs on the surfaces of two media, and such a phenomenon can be induced by photons or electrons. When light enters an optically thinner medium from an optically denser medium, the phenomenon of total reflection occurs, and an evanescent wave is generated and enters the optically thinner medium. When the totally reflected evanescent wave meets the plasmon wave on the metal surface, resonance may occur, the energy of the reflected light decreases, and a resonance peak occurs on the energy spectrum of the reflected light. Such a resonance is called surface plasmon resonance. The angle of incidence causing the surface plasmon resonance is called an SPR angle. An SPR biosensor provides a sensitive, non-labeled detection technique for monitoring intermolecular interactions in real time. The sensor detects the change in the SPR angle, and the SPR is related to the refractive index of the metal surface. When an analyte binds to the chip surface, the refractive index of the chip surface changes, thus causing the change in the SPR angle. This is the basic principle for the SPR biosensor to detect intermolecular interactions in real time. During the interaction analysis, the change in the SPR angle is recorded on the sensorgram in real time.\n(§2) Through the information query, the theoretical isoelectric point of the LAG3 protein is about 9.82, and the amino coupling method was contemplated to immobilize the protein. Since the main ligands of the LAG3 protein are FGL1 and MHCII proteins, after the LAG3 protein was coupled, the FGL1 protein sampling method was used to verify the protein activity.\n(§3) Protein coupling buffer solution: 1.05× PBS-P+; 1.02× PBS-P+\n(§4) Interaction buffer solution: 1.0× PBS-P+, 5% DMSO; 1.0× PBS-P+, 2% DMSO\n(§5) In this experiment, by using the CM5 chip amino coupling method, the human LAG3 protein was immobilized to the Fc2 or Fc3 channel, and the mouse LAG3 protein was immobilized to the Fc3 or Fc4 channel.\n(§6) LAG3 protein coupling conditions were as follows: the concentration was about 25 µg/mL, the system was sodium acetate solution with a pH of 5.5, the chip activation time was 420 s, and the blocking time was 420 s.\n(§7) LAG3 protein coupling conditions were as follows: the concentration was about 50 µg/mL, the system was sodium acetate solution with a pH of 4.5, the chip activation time was 420 s, and the blocking time was 420 s."}, "Human FGL1 protein": {"target": "T3, Human FGL1 protein (Homo sapiens, UniProt Q08830)", "T3 sequence (Q08830 23-312)": "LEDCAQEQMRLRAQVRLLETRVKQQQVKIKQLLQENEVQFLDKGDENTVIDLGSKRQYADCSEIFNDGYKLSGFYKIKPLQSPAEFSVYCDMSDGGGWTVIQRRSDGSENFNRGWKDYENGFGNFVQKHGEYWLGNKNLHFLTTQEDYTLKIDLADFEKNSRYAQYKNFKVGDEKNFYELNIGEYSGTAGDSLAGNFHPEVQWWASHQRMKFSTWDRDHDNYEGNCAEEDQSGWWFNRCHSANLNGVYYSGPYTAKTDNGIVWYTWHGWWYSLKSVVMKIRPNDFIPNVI", "experiment": "SPR interaction assay, human FGL1", "format": "binding", "settings": "SPR", "text": "as §1, §3, §4"}, "Mouse LAG3 protein": {"target": "T4, Mouse LAG3 protein (Mus musculus, UniProt Q61790)", "T4 sequence (Q61790 24-521)": "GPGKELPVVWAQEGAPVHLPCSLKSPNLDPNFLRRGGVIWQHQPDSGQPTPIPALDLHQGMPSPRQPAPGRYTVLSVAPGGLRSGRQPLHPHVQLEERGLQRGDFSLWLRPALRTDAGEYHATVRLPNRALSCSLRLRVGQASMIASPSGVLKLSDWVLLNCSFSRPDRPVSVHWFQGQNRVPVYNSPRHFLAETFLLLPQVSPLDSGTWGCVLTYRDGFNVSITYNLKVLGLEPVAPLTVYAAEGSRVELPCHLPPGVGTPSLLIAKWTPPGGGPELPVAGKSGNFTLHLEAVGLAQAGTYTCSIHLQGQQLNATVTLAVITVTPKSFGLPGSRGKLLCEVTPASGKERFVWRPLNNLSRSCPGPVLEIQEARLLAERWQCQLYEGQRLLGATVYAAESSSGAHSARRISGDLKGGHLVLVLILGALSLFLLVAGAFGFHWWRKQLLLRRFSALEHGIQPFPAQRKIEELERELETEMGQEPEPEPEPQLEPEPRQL", "experiment": "SPR interaction assay, CM5 chip amino coupling, mouse LAG3", "format": "binding", "text": "as §1, §2, §3, §4, §5, §6, §7"}}, "note": "pIC50, pKd: −log10 of the molar value.", "data": [{"compound": "CCCCCCOc1ccc(C(=O)O)cc1-c1cc(C(=O)NCCCCCNC(=O)C(F)(F)F)ccc1OCCCCCC", "note": "[Compound 10]", "values": [{"measurement": "pIC50", "setting": "LAG3/MHCII", "result": 5.00}]}, {"compound": "CCCCCCOc1ccc(C(=O)O)cc1-c1cc(C(=O)NCCNC(=O)C(F)(F)F)ccc1OCCCCCC", "note": "[Compound 11]", "values": [{"measurement": "pIC50", "setting": "LAG3/MHCII", "result": 5.10}]}, {"compound": "COCCCCOc1ccc2cc1-c1cc(ccc1OCCCCOC)C(=O)CCCCCC2=O", "note": "[Compound 7]", "values": [{"measurement": "pIC50", "setting": "LAG3/MHCII", "result": 4.45}]}, {"compound": "CCCCCOc1ccc2cc1-c1cc(ccc1OCCCCC)C(=O)CCCCCC2=O", "note": "[Compound 5]", "values": [{"measurement": "pIC50", "setting": "LAG3/MHCII", "result": 4.48}]}, {"compound": "CCCCCCOc1ccc(C(=O)NCCCCN)cc1-c1cc(C(=O)OC)ccc1OCCCCCC", "note": "[Compound 12]", "values": [{"measurement": "pIC50", "setting": "LAG3/MHCII", "result": "< 4.00"}]}, {"compound": "O=C1CCCCCC(=O)c2ccc(OC3CCCC3)c(c2)-c2cc1ccc2O", "note": "[Compound 3]", "values": [{"measurement": "pIC50", "setting": "LAG3/MHCII", "result": 4.62}]}, {"compound": "O=C1CCCCCC(=O)c2ccc(O)c(c2)-c2cc1ccc2O", "note": "[Compound 2, 1^6,2^6-dihydroxy-1,2(1,3)-diphenylcyclononane-3,9-dione]", "values": [{"measurement": "inhibition at 10 µM", "setting": "LAG3/MHCII", "result": 45.9, "unit": "%"}]}, {"compound": "COc1ccc2cc1-c1cc(ccc1OC)C(=O)CCCCCC2=O", "note": "[Compound 1, 1^6,2^6-dimethoxy-1,2(1,3)-diphenylcyclononane-3,9-dione]", "values": [{"measurement": "inhibition at 10 µM", "setting": "LAG3/MHCII", "result": 25.7, "unit": "%"}]}, {"compound": "CCCCCCOc1ccc(C(=O)O)cc1-c1cc(C(=O)NCCCNC(=O)C(F)(F)F)ccc1OCCCCCC", "note": "[Compound 9]", "values": [{"measurement": "interaction with the human LAG3 protein", "setting": "Human LAG3 protein", "result": "interacts with the human LAG3 protein"}, {"measurement": "Rmax", "setting": "Human LAG3 protein; ligand Human LAG3 protein", "result": 129.5, "unit": "RU"}, {"measurement": "pKd", "setting": "Human LAG3 protein; ligand Human LAG3 protein, Compound 9 fitted in steady-state mode", "result": 3.49}, {"measurement": "Note", "setting": "Human LAG3 protein; ligand Human LAG3 protein, bound or not bound", "result": "Bound"}, {"measurement": "interaction with the human FGL1 protein", "setting": "Human FGL1 protein", "result": "does not interact with the human FGL1 protein"}, {"measurement": "Rmax", "setting": "Human FGL1 protein; ligand FGL1 protein", "result": "3.346 E+5 RU"}, {"measurement": "Note", "setting": "Human FGL1 protein; ligand FGL1 protein, bound or not bound", "result": "Not bound"}, {"measurement": "interaction with the mouse LAG3 protein", "setting": "Mouse LAG3 protein", "result": "does not interact with the mouse LAG3 protein"}, {"measurement": "Rmax", "setting": "Mouse LAG3 protein; ligand Mouse LAG3 protein", "result": "8.130 E+4 RU"}, {"measurement": "Note", "setting": "Mouse LAG3 protein; ligand Mouse LAG3 protein, bound or not bound", "result": "Not bound"}, {"measurement": "pIC50", "setting": "LAG3/MHCII", "result": 5.25}]}, {"compound": "CCCCCCCOc1ccc2cc1-c1cc(ccc1OCCCCCCC)C(=O)CCCCCC2=O", "note": "[Compound 6]", "values": [{"measurement": "pIC50", "setting": "LAG3/MHCII", "result": 4.59}]}]}
